In patent publication US10456358B2, “Isoxazoline compositions and use thereof in the prevention or treatment of parasite infestations in animals” (Intervet Inc., priority 2013, dated 2019):

Columns and labels:
[1] = Technological study: fluralaner concentration at drinking nipples of a poultry house water system; type: physicochemical
Description: The study was conducted in a commercial poultry house for approximately 36000 replacement chickens with 4 batteries each with 3 levels. 4 PVC water dead-end pipes, (78 m long) supplied water for each battery.
Drinking nipples (Big Dutchman types “screw nipples” and “Top”, equipped with a single-arm plastic drip cup) were fitted to the water pipes. In this facility the delivery of the concentrated composition to the drinking nipples using both a dosing pump system and a medication tank was evaluated. • a) Dosing Pump • The dosing pump and its stock solution container were installed in a water hose coming from the water supply pipe and ending in a water tank that was metered for […]. • The dosing pump was set for 5% injection rate. The stock solution container was filled with a total of 8.8 L (175×0.05 [5%]). • Once the container was filled, the calculated volume of 193 mL of the concentrated composition was poured into the container and subsequently stirred. • The dosing pump was connected to the water distribution pipe and the pipe system filled with the medicated water. • b) Medication Tank • The medication tank was filled with 175 L of tap water. • The calculated volume of 193 mL of the concentrated composition was poured into the container and subsequently stirred. • The medication tank was connected to the water distribution pipe and the pipe system filled with the medicated water.
No animals were present in the cages. Therefore the water lines were opened every 10 min to mimic a continuous (intermittent) drinking water flow. At each draining 7.3 L of medicated water was allowed to drain at the dead-end side of the pipe.
Samples of medicated water was taken from 6 drinking nipples: the first and last drinking nipple in a drinker line, and from 4 drinking nipples having an equal distance at pre-defined time points, with a maximum of 4 h and analysed for fluralaner concentration.

[2] = Tolerability in hens in the efficacy study; type: in vivo; conditions: 0.5-2 mg fluralaner/kg BW via medicated drinking water
Description: Groups A-D (n=6) were treated with doses of 2, 1 and 0.5 mg fluralaner/kg BW once or 1 mg fluralaner/kg BW twice (0.5 mg/kg BW on 2 occasions).
On D0 (group D additionally on D7), the hens in groups A-D received fluralaner via medicated drinking water. Group E received un-medicated drinking water ad libitum.

## Cc1cc(C2=NOC(c3cc(Cl)cc(Cl)c3)(C(F)(F)F)C2)ccc1C(=O)NCC(=O)NCC(F)(F)F (centres unmarked) [fluralaner, 4-[5-(3,5-Dichlorophenyl)-5-trifluoromethyl-4,5-dihydroisoxazol-3-yl]-2-methyl-N-[(2,2,2-trifluoro-ethylcarbamoyl)-methyl]-benzamide]
[1]; Dosing pump system, Nipple 1, T 30 min
  Deviation of fluralaner concentration at the drinking nipple from nominal concentration (percent): −10%
[1]; Dosing pump system, Nipple 1, T 60 min
  Deviation of fluralaner concentration at the drinking nipple from nominal concentration (percent): −10%
[1]; Dosing pump system, Nipple 1, T 120 min
  Deviation of fluralaner concentration at the drinking nipple from nominal concentration (percent): −9%
[1]; Dosing pump system, Nipple 1, T 180 min
  Deviation of fluralaner concentration at the drinking nipple from nominal concentration (percent): −9%
[1]; Dosing pump system, Nipple 1, T 240 min
  Deviation of fluralaner concentration at the drinking nipple from nominal concentration (percent): −9%
[1]; Dosing pump system, Nipple 2, T 30 min
  Deviation of fluralaner concentration at the drinking nipple from nominal concentration (percent): −9%
[1]; Dosing pump system, Nipple 2, T 60 min
  Deviation of fluralaner concentration at the drinking nipple from nominal concentration (percent): −14%
[1]; Dosing pump system, Nipple 2, T 120 min
  Deviation of fluralaner concentration at the drinking nipple from nominal concentration (percent): −12%
[1]; Dosing pump system, Nipple 2, T 180 min
  Deviation of fluralaner concentration at the drinking nipple from nominal concentration (percent): −9%
[1]; Dosing pump system, Nipple 2, T 240 min
  Deviation of fluralaner concentration at the drinking nipple from nominal concentration (percent): −9%
[1]; Dosing pump system, Nipple 3, T 30 min
  Deviation of fluralaner concentration at the drinking nipple from nominal concentration (percent): −9%
[1]; Dosing pump system, Nipple 3, T 60 min
  Deviation of fluralaner concentration at the drinking nipple from nominal concentration (percent): −10%
[1]; Dosing pump system, Nipple 3, T 120 min
  Deviation of fluralaner concentration at the drinking nipple from nominal concentration (percent): −10%
[1]; Dosing pump system, Nipple 3, T 180 min
  Deviation of fluralaner concentration at the drinking nipple from nominal concentration (percent): −14%
[1]; Dosing pump system, Nipple 3, T 240 min
  Deviation of fluralaner concentration at the drinking nipple from nominal concentration (percent): −14%
[1]; Dosing pump system, Nipple 4, T 30 min
  Deviation of fluralaner concentration at the drinking nipple from nominal concentration (percent): −12%
[1]; Dosing pump system, Nipple 4, T 60 min
  Deviation of fluralaner concentration at the drinking nipple from nominal concentration (percent): −16%
[1]; Dosing pump system, Nipple 4, T 120 min
  Deviation of fluralaner concentration at the drinking nipple from nominal concentration (percent): −14%
[1]; Dosing pump system, Nipple 4, T 180 min
  Deviation of fluralaner concentration at the drinking nipple from nominal concentration (percent): −10%
[1]; Dosing pump system, Nipple 4, T 240 min
  Deviation of fluralaner concentration at the drinking nipple from nominal concentration (percent): −10%
[1]; Dosing pump system, Nipple 5, T 30 min
  Deviation of fluralaner concentration at the drinking nipple from nominal concentration (percent): −12%
[1]; Dosing pump system, Nipple 5, T 60 min
  Deviation of fluralaner concentration at the drinking nipple from nominal concentration (percent): −10%
[1]; Dosing pump system, Nipple 5, T 120 min
  Deviation of fluralaner concentration at the drinking nipple from nominal concentration (percent): −11%
[1]; Dosing pump system, Nipple 5, T 180 min
  Deviation of fluralaner concentration at the drinking nipple from nominal concentration (percent): −10%
[1]; Dosing pump system, Nipple 5, T 240 min
  Deviation of fluralaner concentration at the drinking nipple from nominal concentration (percent): −10%
[1]; Dosing pump system, Nipple 6, T 30 min
  Deviation of fluralaner concentration at the drinking nipple from nominal concentration (percent): −26%
[1]; Dosing pump system, Nipple 6, T 60 min
  Deviation of fluralaner concentration at the drinking nipple from nominal concentration (percent): −10%
[1]; Dosing pump system, Nipple 6, T 120 min
  Deviation of fluralaner concentration at the drinking nipple from nominal concentration (percent): −11%
[1]; Dosing pump system, Nipple 6, T 180 min
  Deviation of fluralaner concentration at the drinking nipple from nominal concentration (percent): −11%
[1]; Dosing pump system, Nipple 6, T 240 min
  Deviation of fluralaner concentration at the drinking nipple from nominal concentration (percent): −10%
[1]; Medication tank system, Nipple 1, T 30 min
  Deviation of fluralaner concentration at the drinking nipple from nominal concentration (percent): −5%
[1]; Medication tank system, Nipple 1, T 60 min
  Deviation of fluralaner concentration at the drinking nipple from nominal concentration (percent): −4%
[1]; Medication tank system, Nipple 1, T 120 min
  Deviation of fluralaner concentration at the drinking nipple from nominal concentration (percent): −4%
[1]; Medication tank system, Nipple 1, T 180 min
  Deviation of fluralaner concentration at the drinking nipple from nominal concentration (percent): −5%
[1]; Medication tank system, Nipple 1, T 240 min
  Deviation of fluralaner concentration at the drinking nipple from nominal concentration (percent): −10%
[1]; Medication tank system, Nipple 2, T 30 min
  Deviation of fluralaner concentration at the drinking nipple from nominal concentration (percent): −7%
[1]; Medication tank system, Nipple 2, T 60 min
  Deviation of fluralaner concentration at the drinking nipple from nominal concentration (percent): −5%
[1]; Medication tank system, Nipple 2, T 120 min
  Deviation of fluralaner concentration at the drinking nipple from nominal concentration (percent): −4%
[1]; Medication tank system, Nipple 2, T 180 min
  Deviation of fluralaner concentration at the drinking nipple from nominal concentration (percent): −5%
[1]; Medication tank system, Nipple 2, T 240 min
  Deviation of fluralaner concentration at the drinking nipple from nominal concentration (percent): −4%
[1]; Medication tank system, Nipple 3, T 30 min
  Deviation of fluralaner concentration at the drinking nipple from nominal concentration (percent): −5%
[1]; Medication tank system, Nipple 3, T 60 min
  Deviation of fluralaner concentration at the drinking nipple from nominal concentration (percent): −4%
[1]; Medication tank system, Nipple 3, T 120 min
  Deviation of fluralaner concentration at the drinking nipple from nominal concentration (percent): −4%
[1]; Medication tank system, Nipple 3, T 180 min
  Deviation of fluralaner concentration at the drinking nipple from nominal concentration (percent): −4%
[1]; Medication tank system, Nipple 3, T 240 min
  Deviation of fluralaner concentration at the drinking nipple from nominal concentration (percent): −4%
[1]; Medication tank system, Nipple 4, T 30 min
  Deviation of fluralaner concentration at the drinking nipple from nominal concentration (percent): −6%
[1]; Medication tank system, Nipple 4, T 60 min
  Deviation of fluralaner concentration at the drinking nipple from nominal concentration (percent): −5%
[1]; Medication tank system, Nipple 4, T 120 min
  Deviation of fluralaner concentration at the drinking nipple from nominal concentration (percent): −4%
[1]; Medication tank system, Nipple 4, T 180 min
  Deviation of fluralaner concentration at the drinking nipple from nominal concentration (percent): −4%
[1]; Medication tank system, Nipple 4, T 240 min
  Deviation of fluralaner concentration at the drinking nipple from nominal concentration (percent): −3%
[1]; Medication tank system, Nipple 5, T 30 min
  Deviation of fluralaner concentration at the drinking nipple from nominal concentration (percent): −8%
[1]; Medication tank system, Nipple 5, T 60 min
  Deviation of fluralaner concentration at the drinking nipple from nominal concentration (percent): −4%
[1]; Medication tank system, Nipple 5, T 120 min
  Deviation of fluralaner concentration at the drinking nipple from nominal concentration (percent): −4%
[1]; Medication tank system, Nipple 5, T 180 min
  Deviation of fluralaner concentration at the drinking nipple from nominal concentration (percent): −4%
[1]; Medication tank system, Nipple 5, T 240 min
  Deviation of fluralaner concentration at the drinking nipple from nominal concentration (percent): −6%
[1]; Medication tank system, Nipple 6, T 30 min
  Deviation of fluralaner concentration at the drinking nipple from nominal concentration (percent): −6%
[1]; Medication tank system, Nipple 6, T 60 min
  Deviation of fluralaner concentration at the drinking nipple from nominal concentration (percent): −6%
[1]; Medication tank system, Nipple 6, T 120 min
  Deviation of fluralaner concentration at the drinking nipple from nominal concentration (percent): −4%
[1]; Medication tank system, Nipple 6, T 180 min
  Deviation of fluralaner concentration at the drinking nipple from nominal concentration (percent): −5%
[1]; Medication tank system, Nipple 6, T 240 min
  Deviation of fluralaner concentration at the drinking nipple from nominal concentration (percent): −4%
[1]; up to 4 hours, medication tank and dosing pump
  fluralaner concentration in the drinking water over time and along the drinking water line: remains constant over time and along the drinking water line
[2]
  tolerability: well tolerated
